Test results from patent US9512128B2 (BAYER CROPSCIENCE AG, priority 2012, dated 2016).
Read-outs that look alike come from different tables or passages of the source.

Assay: log P by HPLC on reversed-phase columns (C 18), EEC directive 79/831 Annex V.A8
Assay type: physicochemical
Settings: for logP[a]: method [a]; for logP[b]: method [b]
Description: The log P values were determined according to EEC directive 79/831 Annex V.A8 by HPLC (High Performance Liquid Chromatography) on reversed-phase columns (C 18), using the methods below:
[a] The LC-MS determination in the acidic range is carried out at pH 2.7 with 0.1% aqueous formic acid and acetonitrile (contains 0.1% formic acid) as mobile phases; linear gradient from 10% acetonitrile to 95% acetonitrile.
[b] The LC-MS determination in the neutral range is carried out at pH 7.8 using the mobile phases 0.001 molar aqueous ammonium bicarbonate solution and acetonitrile; linear gradient from 10% acetonitrile to 95% acetonitrile.

[1] = reversed-phase C18 HPLC column, pH 2.7, acidic range, pH 2.7, 0.1% aqueous formic acid / acetonitrile, read-out: log P[a]
[2] = reversed-phase C18 HPLC column, pH 7.8, neutral range, pH 7.8, 0.001 molar aqueous ammonium bicarbonate / acetonitrile, read-out: log P[b]
[3] = reversed-phase C18 HPLC column, pH 2.7, method [a], read-out: logP[a]
[4] = reversed-phase C18 HPLC column, pH 7.8, method [b], read-out: logP[b]
[5] = acidic range, pH 2.7, 0.1% aqueous formic acid / acetonitrile, read-out: log P[a]
[6] = neutral range, pH 7.8, 0.001 molar aqueous ammonium bicarbonate / acetonitrile, read-out: log P[b]

**Q.** Which results are given for Cc1cc(F)c(-n2cnc3c(Cl)c(Cl)sc3c2=O)cc1[S+]([O-])CC(F)(F)F (centres unmarked) [Compound 115]?
**A.** logP[a]: 3.20; logP[b]: 3.13

**Q.** Which results are given for Cc1nc2c(=O)n(-c3cc(SCC(F)(F)F)c(Cl)cc3Cl)cnc2s1 [Compound 71]?
**A.** logP[a]: 3.09; logP[b]: 3.02

**Q.** Which results are given for O=c1c2scnc2ncn1-c1cc(SCC(F)(F)F)c(Cl)cc1Cl [Compound 77]?
**A.** logP[a]: 2.79; logP[b]: 2.76

**Q.** Which “logP[a]” value does the source give for Cc1ccc(-n2cnc3ccsc3c2=O)cc1SCC(F)(F)F [Compound 100] here?
**A.** 2.87

**Q.** What about the “logP[b]” value of the same compound?
**A.** 2.79

**Q.** With FC(F)(F)CSc1cc(Br)c(Cl)cc1Cl [VIIa-6, 1-Bromo-2,4-dichloro-5-[(2,2,2-trifluoroethyl)sulphanyl]benzene] as the compound, how does the chromatographic logP [1] read?
**A.** 4.8

**Q.** And the chromatographic logP [2]?
**A.** 4.77

**Q.** For O=c1c2ccsc2ncn1-c1ccc(C(F)(F)F)c([S+]([O-])CC(F)(F)F)c1 (centres unmarked) [Compound 99], which “logP[a]” value is on record?
**A.** 2.54

**Q.** And the “logP[b]” value?
**A.** 2.51

**Q.** For COc1ccc(Br)cc1SCC(F)(F)F [VIIa-8, 4-Bromo-1-methoxy-2-[(2,2,2-trifluoroethyl)sulphanyl]benzene], which chromatographic logP [1] is on record?
**A.** 3.69

**Q.** And the chromatographic logP [2]?
**A.** 3.81

**Q.** What does the source list for O=C(Nc1cc(SSc2cc(NC(=O)C(F)(F)F)c(F)cc2Cl)c(Cl)cc1F)C(F)(F)F [XI-2, N,N′-[Disulphanediylbis(4-chloro-6-fluorobenzene-3,1-diyl)]bis(2,2,2-trifluoroacetamide)]?
**A.** chromatographic logP [1]: 4.6; chromatographic logP [2]: 3.82

**Q.** Which chromatographic logP [1] does the source give for Cc1cc(F)c(NC(=O)C(F)(F)F)cc1SSc1cc(NC(=O)C(F)(F)F)c(F)cc1C [XI-1, N,N′-[Disulphanediylbis(6-fluoro-4-methylbenzene-3,1-diyl)]bis(2,2,2-trifluoroacetamide)] here?
**A.** 4.41

**Q.** Which “logP[a]” value does the source give for Cc1cc(C)c([S+]([O-])CC(F)(F)F)cc1-n1cnc2c(ncn2C)c1=O (racemic) [Compound 58] here?
**A.** 1.43

**Q.** What about the “logP[b]” value of the same compound?
**A.** 1.40

**Q.** Which “logP[a]” value does the source give for Cc1cc(C)c(-n2c(C(F)(F)F)nc3c(cnn3C)c2=O)cc1SCC(F)(F)F [Compound 11] here?
**A.** 3.83

**Q.** What about the “logP[b]” value of the same compound?
**A.** 3.77

**Q.** With Nc1cc(SSc2cc(N)c(Cl)cc2Cl)c(Cl)cc1Cl [XVIII-6, 3,3′-Disulphanediylbis(4,6-dichloroaniline)] as the compound, how does the chromatographic logP [1] read?
**A.** 5.14

**Q.** And the chromatographic logP [2]?
**A.** 4.95

**Q.** Which chromatographic logP [1] does the source give for Cc1cc(F)c(-n2c(C(F)(F)F)nc3c(cnn3C)c2=O)cc1SCC(F)(F)F [Compound 13, 5-{2-Fluoro-4-methyl-5-[(2,2,2-trifluoroethyl)sulphanyl]phenyl}-1-methyl-6-(trifluoromethyl)-1,5-dihydro-4H-pyrazolo[3,4-d]pyrimidin-4-one] here?
**A.** 3.75

**Q.** And the chromatographic logP [3]?
**A.** 3.75

**Q.** What about the chromatographic logP [4] of the same compound?
**A.** 3.94

**Q.** And the chromatographic logP [2]?
**A.** 3.94

**Q.** What does the source list for Nc1cc(SSc2ccc(F)c(N)c2)ccc1F [XVIII-5, 3,3′-Disulphanediylbis(6-fluoroaniline)]?
**A.** chromatographic logP [1]: 2.98; chromatographic logP [2]: 2.97

**Q.** Which chromatographic logP [1] does the source give for Cc1cc(C)c(SCC(F)(F)F)cc1Br [VIIa-11, 1-Bromo-2,4-dimethyl-5-[(2,2,2-trifluoroethyl)sulphanyl]benzene] here?
**A.** 4.81

**Q.** And the chromatographic logP [2]?
**A.** 4.77

**Q.** Which results are given for Cc1cc(F)c(-n2c(C(F)(F)F)nc3nn(C)cc3c2=O)cc1SCC(F)(F)F [Compound 42]?
**A.** logP[a]: 3.27; logP[b]: 3.19

**Q.** What does the source list for Cc1ccc(-n2cnc3sccc3c2=O)cc1SCC(F)(F)F [Compound 83, 3-{4-Methyl-3-[(2,2,2-trifluoroethyl)sulphanyl]phenyl}thieno[2,3-d]pyrimidin-4(3H)-one]?
**A.** chromatographic logP [1]: 3.04; chromatographic logP [3]: 3.09; chromatographic logP [4]: 3.01; chromatographic logP [2]: 3.02

**Q.** What does the source list for Cc1ccc(B2OC(C)(C)C(C)(C)O2)cc1SCC(F)(F)F [4,4,5,5-Tetramethyl-2-{4-methyl-3-[(2,2,2-trifluoroethyl)sulphanyl]phenyl}-1,3,2-dioxaborolane]?
**A.** chromatographic logP [1]: 3.73; chromatographic logP [2]: 3.74

**Q.** What does the source list for Cn1ncc2c(=O)n(-c3ccc(C#N)c(SCC(F)(F)F)c3)cnc21 [Compound 24]?
**A.** logP[a]: 2.07; logP[b]: 2.06

**Q.** For Cc1ccc(-n2cnc3c(cnn3C)c2=O)cc1SCC(F)(F)F [Compound 8], which “logP[a]” value is on record?
**A.** 2.56

**Q.** And the “logP[b]” value?
**A.** 2.54

**Q.** What does the source list for N#Cc1ccc(-n2cnc3sccc3c2=O)cc1SCC(F)(F)F [Compound 93]?
**A.** logP[a]: 2.48; logP[b]: 2.46

**Q.** Which results are given for Cc1ccc(B(O)O)cc1SCC(F)(F)F [VIIIa-7, {4-Methyl-3-[(2,2,2-trifluoroethyl)sulphanyl]phenyl}boronic acid]?
**A.** chromatographic logP [1]: 2.3; chromatographic logP [2]: 2.24

**Q.** Which “logP[a]” value does the source give for Cc1cc(C)c(-n2c(C)nc3c(ncn3C)c2=O)cc1SCC(F)(F)F [Compound 56] here?
**A.** 2.36

**Q.** And the “logP[b]” value?
**A.** 2.35

**Q.** For Cc1nn(C)c2ncn(-c3ccc(C(F)(F)F)c(SCC(F)(F)F)c3)c(=O)c12 [Compound 31], which “logP[a]” value is on record?
**A.** 3.06

**Q.** What about the “logP[b]” value of the same compound?
**A.** 2.99

**Q.** Which results are given for Cn1cnc2c(=O)n(-c3cc(SCC(F)(F)F)c(Cl)cc3F)cnc21 [Compound 57]?
**A.** logP[a]: 2.19; logP[b]: 2.17

**Q.** For Nc1ccc(Cl)c(SSc2cc(N)ccc2Cl)c1 [XVIII-3, 3,3′-Disulphanediylbis(4-chloroaniline)], which chromatographic logP [1] is on record?
**A.** 3.31

**Q.** And the chromatographic logP [2]?
**A.** 3.35

**Q.** Which chromatographic logP [5] does the source give for O=[N+]([O-])c1cc(SSc2ccc(F)c([N+](=O)[O-])c2)ccc1F [XIX-5, 1,1′-Disulphanediylbis(4-fluoro-3-nitrobenzene)] here?
**A.** 3.83

**Q.** What about the chromatographic logP [6] of the same compound?
**A.** 3.79

**Q.** For Cc1nc2c(cnn2C)c(=O)n1-c1cc(SCC(F)(F)F)c(Cl)cc1Cl [Compound 5], which “logP[a]” value is on record?
**A.** 3.18

**Q.** What about the “logP[b]” value of the same compound?
**A.** 3.11

**Q.** With O=c1c2sccc2ncn1-c1ccc(C(F)(F)F)c([S+]([O-])CC(F)(F)F)c1 (centres unmarked) [Compound 107] as the compound, how does the “logP[a]” value read?
**A.** 2.44

**Q.** What about the “logP[b]” value of the same compound?
**A.** 2.40

**Q.** Which chromatographic logP [5] does the source give for O=C(Nc1ccc(Cl)cc1F)C(F)(F)F [XIII-2, N-(4-Chloro-2-fluorophenyl)-2,2,2-trifluoroacetamide] here?
**A.** 2.53

**Q.** What about the chromatographic logP [6] of the same compound?
**A.** 2.4

**Q.** With Cc1ccc(-n2cnc3ccsc3c2=O)cc1[S+]([O-])CC(F)(F)F (centres unmarked) [Compound 101] as the compound, how does the “logP[a]” value read?
**A.** 1.82

**Q.** What about the “logP[b]” value of the same compound?
**A.** 1.81

**Q.** With Cc1cc(F)c(B(O)O)cc1[S+]([O-])CC(F)(F)F (centres unmarked) [VIIIb-1, {2-Fluoro-4-methyl-5-[(2,2,2-trifluoroethyl)sulphinyl]phenyl}boronic acid] as the compound, how does the chromatographic logP [1] read?
**A.** 1.38

**Q.** And the chromatographic logP [2]?
**A.** 1.11

**Q.** Which results are given for Cc1ccc(I)cc1SCC(F)(F)F [VIIa-7-I, 4-Iodo-1-methyl-2-[(2,2,2-trifluoroethyl)sulphanyl]benzene]?
**A.** chromatographic logP [1]: 4.49; chromatographic logP [2]: 4.48

**Q.** Which results are given for Cc1cc(F)c(NC(=O)c2cnn(C)c2N)cc1SCC(F)(F)F [5-Amino-N-{2-fluoro-4-methyl-5-[(2,2,2-trifluoroethyl)sulphanyl]phenyl}-1-methyl-1H-pyrazole-4-carboxamide]?
**A.** chromatographic logP [1]: 2.44; chromatographic logP [2]: 2.23

**Q.** For Cn1ncc2c(=O)n(-c3ccc(C(F)(F)F)c([S+]([O-])CC(F)(F)F)c3)cnc21 (racemic) [Compound 29], which “logP[a]” value is on record?
**A.** 2.16

**Q.** What about the “logP[b]” value of the same compound?
**A.** 2.11

**Q.** For O=c1c2ccsc2ncn1-c1ccc(Cl)c(SCC(F)(F)F)c1 [Compound 85], which “logP[a]” value is on record?
**A.** 3.09

**Q.** What about the “logP[b]” value of the same compound?
**A.** 3.03

**Q.** What does the source list for Cc1ccc(B(O)O)cc1[S+]([O-])CC(F)(F)F (centres unmarked) [VIIIb-7, {4-Methyl-3-[(2,2,2-trifluoroethyl)sulphinyl]phenyl}boronic acid]?
**A.** chromatographic logP [1]: 1.41; chromatographic logP [2]: 1.36
